Measurements: PMC12389580, “Neuromuscular System of Nematodes Is a Target of Synergistic Pharmacological Effects of Carvacrol and Geraniol” (Pharmaceuticals, 2025)

Key:
Test in all cases: two-electrode voltage clamp, Xenopus oocytes
Type in all cases: cell-based
Asu-ACR-16 nAChR [1] = molecular target: T1, Asu-ACR-16 nAChR (Ascaris suum, UniProt A0A0K0QSL7); details: non-competitive inhibition of ACh-evoked currents, -60 mV
T1 construct: homopentameric nAChR; full-length subunit cRNA injected in Xenopus laevis oocytes; no auxiliary subunit mentioned
T1 sequence (A0A0K0QSL7 1-504): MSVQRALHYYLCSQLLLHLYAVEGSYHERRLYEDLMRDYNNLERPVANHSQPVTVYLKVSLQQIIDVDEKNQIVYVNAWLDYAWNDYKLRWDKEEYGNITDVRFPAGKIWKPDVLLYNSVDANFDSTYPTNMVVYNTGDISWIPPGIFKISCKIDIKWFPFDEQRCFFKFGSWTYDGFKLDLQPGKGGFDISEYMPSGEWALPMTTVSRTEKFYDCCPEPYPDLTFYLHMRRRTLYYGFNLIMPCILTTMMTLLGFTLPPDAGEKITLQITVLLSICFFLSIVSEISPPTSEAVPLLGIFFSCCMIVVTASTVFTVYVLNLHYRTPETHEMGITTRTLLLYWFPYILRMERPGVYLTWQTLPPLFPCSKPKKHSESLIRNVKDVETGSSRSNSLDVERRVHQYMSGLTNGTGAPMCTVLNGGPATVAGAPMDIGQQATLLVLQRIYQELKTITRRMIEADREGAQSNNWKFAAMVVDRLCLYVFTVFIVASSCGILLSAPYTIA

Asu-ACR-16 nAChR [2] = molecular target: T1, Asu-ACR-16 nAChR
Asu-ACR-16 nAChR [3] = molecular target: T1, Asu-ACR-16 nAChR; details: non-competitive antagonist of ACh-evoked currents, -60 mV

Compound: CC(C)=CCC/C(C)=C/CO [geraniol]
- Emax of ACh at 100 μM geraniol (% of response to 100 μM ACh; control 97.63 ± 0.92%) (Asu-ACR-16 nAChR [1]): 39.83 ± 1.49%

Compound: CC(=O)OCC[N+](C)(C)C [acetylcholine]
- EC50 (Asu-ACR-16 nAChR [2]): 7.89 ± 1.02 µM

Compound: Cc1ccc(C(C)C)cc1O [carvacrol]
- Emax of ACh at 100 μM carvacrol (% of response to 100 μM ACh) (Asu-ACR-16 nAChR [3]): 73.09 ± 1.87%
